Results reported in patent US10537567B2, “Kinase inhibitors for treatment of disease” (BioAxone BioSciences, Inc., priority 2017, dated 2020).

Key:
[1] = Hyperemia / ocular tolerability testing in Dutch-Belted rabbits; assay type: in vivo, Dutch-Belted rabbits (Oryctolagus cuniculus)
Text: To test for hyperemia, the rabbit is a standard species used in ocular tolerability studies based upon historical data and FDA requirements. For this study, four (4) Dutch-Belted rabbits (Oryctolagus cuniculus) were manually restrained to facilitate topical dosing followed by ocular examinations, and IOP measurements. Prior to placement on study, each animal underwent an ophthalmic examination (slit-lamp biomicroscopy, indirect ophthalmoscopy). Ocular findings were scored according to a modified McDonald-Shadduck Scoring System. […] Test and control articles were dosed in the morning at approximately the same time every day (˜8 am±2 hours). Animals were observed within their cages once daily throughout the study period. […] Any abnormal observation was reported to the Study Director. Ocular findings were scored according to a modified McDonald-Shadduck Scoring System. The scoring system 0=normal and numbers of 1-4 score mild to severe.
(Table 3). Thus, these ROCK inhibitors have promise for therapeutic use in treating eye pathologies.

ROCK1 = ROCK1 (Homo sapiens, UniProt Q13464); test: IC50 determined at 10 μM ATP; assay type: biochemical; design: purchased Eurofins Testing (Dundee, Scotland, UK); conditions: 10 μM ATP (below Km)
Sequence of ROCK1 (Q13464 whole entry): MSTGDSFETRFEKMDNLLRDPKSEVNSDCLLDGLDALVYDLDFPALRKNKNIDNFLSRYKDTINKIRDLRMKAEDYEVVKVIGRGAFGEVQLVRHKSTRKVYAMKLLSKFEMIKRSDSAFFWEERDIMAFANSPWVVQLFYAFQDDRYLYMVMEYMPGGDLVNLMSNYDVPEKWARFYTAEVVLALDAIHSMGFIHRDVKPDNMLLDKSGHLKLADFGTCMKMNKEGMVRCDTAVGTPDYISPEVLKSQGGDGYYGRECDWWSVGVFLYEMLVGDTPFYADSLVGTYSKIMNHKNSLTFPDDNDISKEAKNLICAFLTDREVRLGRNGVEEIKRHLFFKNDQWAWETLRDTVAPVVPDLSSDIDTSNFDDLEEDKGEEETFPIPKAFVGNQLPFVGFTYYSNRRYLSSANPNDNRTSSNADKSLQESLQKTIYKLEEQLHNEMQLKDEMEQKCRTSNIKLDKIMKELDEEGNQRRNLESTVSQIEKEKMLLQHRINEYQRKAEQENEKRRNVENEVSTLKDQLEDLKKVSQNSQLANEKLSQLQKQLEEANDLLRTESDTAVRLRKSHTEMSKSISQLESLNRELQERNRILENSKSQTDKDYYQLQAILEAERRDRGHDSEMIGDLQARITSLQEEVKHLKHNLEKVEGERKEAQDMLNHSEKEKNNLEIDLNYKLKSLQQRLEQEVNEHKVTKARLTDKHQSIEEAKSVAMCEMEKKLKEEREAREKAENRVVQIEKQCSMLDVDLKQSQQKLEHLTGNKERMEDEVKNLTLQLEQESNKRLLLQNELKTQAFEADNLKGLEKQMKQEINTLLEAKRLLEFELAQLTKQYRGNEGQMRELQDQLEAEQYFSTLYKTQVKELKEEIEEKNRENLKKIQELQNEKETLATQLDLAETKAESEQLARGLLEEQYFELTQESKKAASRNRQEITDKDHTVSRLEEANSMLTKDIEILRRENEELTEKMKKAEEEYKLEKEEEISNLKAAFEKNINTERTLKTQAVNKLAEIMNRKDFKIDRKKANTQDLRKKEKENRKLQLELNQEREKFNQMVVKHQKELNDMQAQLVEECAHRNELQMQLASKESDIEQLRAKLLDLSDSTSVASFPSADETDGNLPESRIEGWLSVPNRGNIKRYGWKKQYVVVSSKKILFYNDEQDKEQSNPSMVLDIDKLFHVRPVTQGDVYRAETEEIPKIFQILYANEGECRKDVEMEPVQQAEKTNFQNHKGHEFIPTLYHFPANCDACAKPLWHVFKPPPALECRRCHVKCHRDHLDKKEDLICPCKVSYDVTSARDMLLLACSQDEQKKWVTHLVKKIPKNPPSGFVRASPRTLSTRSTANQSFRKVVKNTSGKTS

[2] = Day 3, 1% topical once daily, modified McDonald-Shadduck score, 0=normal, 1-4 mild to severe, cells = rabbit 1/2, OD/OS

## C[C@H](N)C1CCN(S(=O)(=O)c2cccc3cnccc23)CC1 [BA-1076]
[1]; [2]
  Aqueous Flare: 0
  Cellular Flare: 0
  Conjunctival Congestion: 0
  Conjunctival Discharge: 0
  Conjunctival Swelling: 0
  Cornea: 0
  Iris Involvement: 0
  Pannus: 0
  Pupillary Response: 0
  Surface Area of Cornea Involvement: 0
[1]; daily repeat topical dosing, 1%, three days
  Hyperemia / adverse ocular findings: did not cause hyperemia
ROCK1
  IC50: 10 µM
